Test results taken from PubChem BioAssay (NCI).
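Five concentrations, 48 hours, 96-well plates. Definition used: TGI = concentration required for complete inhibition of growth.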

Assays:
Assay in all cases: growth of human tumour cells (NCI), 48 h
M14 melanoma = test system: M14 melanoma
HL-60(TB) leukemia = test system: HL-60(TB) leukemia
UO-31 renal = test system: UO-31 renal
K-562 leukemia = test system: K-562 leukemia
SW-620 colon = test system: SW-620 colon
RPMI-8226 leukemia = test system: RPMI-8226 leukemia
LOX IMVI melanoma = test system: LOX IMVI melanoma
SF-268 CNS = test system: SF-268 CNS
SK-OV-3 ovarian = test system: SK-OV-3 ovarian
TK-10 renal = test system: TK-10 renal
786-0 renal = test system: 786-0 renal
SNB-19 CNS = test system: SNB-19 CNS
SF-539 CNS = test system: SF-539 CNS
SR leukemia = test system: SR leukemia
HCT-116 colon = test system: HCT-116 colon
COLO 205 colon = test system: COLO 205 colon
MALME-3M melanoma = test system: MALME-3M melanoma
MDA-MB-435 = test system: MDA-MB-435
NCI/ADR-RES ovarian = test system: NCI/ADR-RES ovarian
MDA-N = test system: MDA-N
EKVX NSCLC = test system: EKVX NSCLC
OVCAR-4 ovarian = test system: OVCAR-4 ovarian
UACC-257 melanoma = test system: UACC-257 melanoma
U251 CNS = test system: U251 CNS
DU-145 prostate = test system: DU-145 prostate
NCI-H23 lung = test system: NCI-H23 lung
CCRF-CEM leukemia = test system: CCRF-CEM leukemia
PC-3 prostate = test system: PC-3 prostate
A549 NSCLC = test system: A549 NSCLC
OVCAR-3 ovarian = test system: OVCAR-3 ovarian
SK-MEL-5 melanoma = test system: SK-MEL-5 melanoma
HT29 colon = test system: HT29 colon
HCT-15 colon = test system: HCT-15 colon
NCI-H226 lung = test system: NCI-H226 lung
RXF 393 renal = test system: RXF 393 renal
KM12 colon = test system: KM12 colon
OVCAR-8 ovarian = test system: OVCAR-8 ovarian
OVCAR-5 ovarian = test system: OVCAR-5 ovarian
NCI-H460 lung = test system: NCI-H460 lung
CAKI-1 renal = test system: CAKI-1 renal
SK-MEL-28 melanoma = test system: SK-MEL-28 melanoma
HCC-2998 colon = test system: HCC-2998 colon
MDA-MB-231 breast = test system: MDA-MB-231 breast
MCF7 breast = test system: MCF7 breast
SK-MEL-2 melanoma = test system: SK-MEL-2 melanoma
HS 578T breast = test system: HS 578T breast
BT-549 breast = test system: BT-549 breast
T-47D breast = test system: T-47D breast
MOLT-4 leukemia = test system: MOLT-4 leukemia
SN12C renal = test system: SN12C renal
A498 renal = test system: A498 renal
NCI-H522 lung = test system: NCI-H522 lung
UACC-62 melanoma = test system: UACC-62 melanoma
SNB-75 CNS = test system: SNB-75 CNS
HOP-62 NSCLC = test system: HOP-62 NSCLC
HOP-92 NSCLC = test system: HOP-92 NSCLC
IGROV1 ovarian = test system: IGROV1 ovarian
SF-295 CNS = test system: SF-295 CNS

Compound: COc1ccccc1-n1c(=O)n(C)c(=O)n1C(C)(C)C
- TGI (M14 melanoma): > 100 µM
- TGI (HL-60(TB) leukemia): > 100 µM
- TGI (UO-31 renal): > 100 µM
- TGI (K-562 leukemia): > 100 µM
- TGI (SW-620 colon): > 100 µM
- TGI (RPMI-8226 leukemia): > 100 µM
- TGI (LOX IMVI melanoma): > 100 µM
- TGI (SF-268 CNS): > 100 µM
- TGI (SK-OV-3 ovarian): > 100 µM
- TGI (TK-10 renal): > 100 µM
- TGI (786-0 renal): > 100 µM
- TGI (SNB-19 CNS): > 100 µM
- TGI (SF-539 CNS): > 100 µM
- TGI (SR leukemia): > 100 µM
- TGI (HCT-116 colon): > 100 µM
- TGI (COLO 205 colon): > 100 µM
- TGI (MALME-3M melanoma): > 100 µM
- TGI (MDA-MB-435): > 100 µM
- TGI (NCI/ADR-RES ovarian): > 100 µM
- TGI (MDA-N): > 100 µM
- TGI (EKVX NSCLC): > 100 µM
- TGI (OVCAR-4 ovarian): > 100 µM
- TGI (UACC-257 melanoma): > 100 µM
- TGI (U251 CNS): > 100 µM
- TGI (DU-145 prostate): > 100 µM
- TGI (NCI-H23 lung): > 100 µM
- TGI (CCRF-CEM leukemia): > 100 µM
- TGI (PC-3 prostate): > 100 µM
- TGI (A549 NSCLC): > 100 µM
- TGI (OVCAR-3 ovarian): > 100 µM
- TGI (SK-MEL-5 melanoma): > 100 µM
- TGI (HT29 colon): > 100 µM
- TGI (HCT-15 colon): > 100 µM
- TGI (NCI-H226 lung): > 100 µM
- TGI (RXF 393 renal): > 100 µM
- TGI (KM12 colon): > 100 µM
- TGI (OVCAR-8 ovarian): > 100 µM
- TGI (OVCAR-5 ovarian): > 100 µM
- TGI (NCI-H460 lung): > 100 µM
- TGI (CAKI-1 renal): > 100 µM
- TGI (SK-MEL-28 melanoma): > 100 µM
- TGI (HCC-2998 colon): > 100 µM
- TGI (MDA-MB-231 breast): > 100 µM
- TGI (MCF7 breast): > 100 µM
- TGI (SK-MEL-2 melanoma): > 100 µM
- TGI (HS 578T breast): > 100 µM
- TGI (BT-549 breast): > 100 µM
- TGI (T-47D breast): > 100 µM
- TGI (MOLT-4 leukemia): > 100 µM
- TGI (SN12C renal): > 100 µM
- TGI (A498 renal): > 100 µM
- TGI (NCI-H522 lung): > 100 µM
- TGI (UACC-62 melanoma): > 100 µM
- TGI (SNB-75 CNS): > 100 µM

Compound: Nc1cc2c(c3ccccc13)C(CCl)CN2C(=O)c1cc2cc(NC(=O)Nc3ccc4[nH]c(C(=O)N5CC(CCl)c6c5cc(N)c5ccccc65)cc4c3)ccc2[nH]1 (stereo unspecified)
- TGI (M14 melanoma): 0.644 µM
- TGI (UO-31 renal): 1.4 µM
- TGI (HOP-62 NSCLC): 1.55 µM
- TGI (K-562 leukemia): > 100 µM
- TGI (SW-620 colon): 2.07 µM
- TGI (RPMI-8226 leukemia): > 23.3 µM
- TGI (LOX IMVI melanoma): 12 µM
- TGI (SF-268 CNS): 8.15 µM
- TGI (SK-OV-3 ovarian): > 24.3 µM
- TGI (TK-10 renal): 3.75 µM
- TGI (786-0 renal): 0.258 µM
- TGI (SF-539 CNS): 1.11 µM
- TGI (SR leukemia): 1.13 µM
- TGI (HCT-116 colon): 1.13 µM
- TGI (COLO 205 colon): 2.07 µM
- TGI (MALME-3M melanoma): 2.03 µM
- TGI (MDA-MB-435): 4.33 µM
- TGI (NCI/ADR-RES ovarian): 39.4 µM
- TGI (MDA-N): 2.49 µM
- TGI (EKVX NSCLC): 6.38 µM
- TGI (OVCAR-4 ovarian): > 100 µM
- TGI (UACC-257 melanoma): 3.24 µM
- TGI (HOP-92 NSCLC): > 100 µM
- TGI (DU-145 prostate): 0.704 µM
- TGI (NCI-H23 lung): 1.02 µM
- TGI (CCRF-CEM leukemia): 2.98 µM
- TGI (PC-3 prostate): 12.8 µM
- TGI (OVCAR-3 ovarian): 2.41 µM
- TGI (SK-MEL-5 melanoma): 0.341 µM
- TGI (HT29 colon): 2.01 µM
- TGI (HCT-15 colon): > 32.3 µM
- TGI (NCI-H226 lung): 1.81 µM
- TGI (RXF 393 renal): 0.248 µM
- TGI (KM12 colon): 3.22 µM
- TGI (OVCAR-5 ovarian): 4.22 µM
- TGI (IGROV1 ovarian): 1.4 µM
- TGI (NCI-H460 lung): > 100 µM
- TGI (CAKI-1 renal): 0.444 µM
- TGI (SK-MEL-28 melanoma): 2.52 µM
- TGI (HCC-2998 colon): 1.19 µM
- TGI (MDA-MB-231 breast): 2.16 µM
- TGI (MCF7 breast): 1.4 µM
- TGI (SK-MEL-2 melanoma): 2.17 µM
- TGI (HS 578T breast): 12.3 µM
- TGI (BT-549 breast): 4.53 µM
- TGI (T-47D breast): 1.34 µM
- TGI (SN12C renal): > 100 µM
- TGI (A498 renal): 0.832 µM
- TGI (NCI-H522 lung): 1.42 µM
- TGI (UACC-62 melanoma): 1.05 µM
- TGI (SNB-75 CNS): 0.73 µM
- TGI (SF-295 CNS): 2.99 µM
